Assay results from US12310975B2, “Modulators of BCL6 proteolysis and associated methods of use” (Arvinas Operations, Inc., priority 2019, dated 2025).
Like-named read-outs stand apart in the source and are kept apart here.

Target: BCL6 (Homo sapiens (Human), UniProt P41182)
Experiment: Immunofluorescence high content imaging of BCL6 degradation in T47D cells
Type: cell-based
Procedure, shortened: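 T47D, 3 d compound exposure, 11-pt 3-fold series, top 0.1 or 1 μM final. Fix 4% PFA, Triton permeabilize, anti-BCL6 primary overnight 4 °C, Alexa-488 secondary. High-content imaging 10×, 4 fields/well, top-hat smoothing.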

SMILES | IC50 | Dmax (T47D) | Dmax (T47D cells) | IC50 (T47D cells)
CCn1c(=O)c(OCC(=O)NC)cc2cc(Nc3nc(N4CCN(CC5CN(C6CN(c7ccc8c(c7)C(=O)N(C7CCC(=O)NC7=O)C8=O)C6)C5)CC4)ncc3Cl)ccc21 (stereo not shown) [compound 302, 2-{[6-({5-chloro-2-[4-({1′-[2-(2,6-dioxopiperidin-3-yl)-1,3-dioxo-2,3-dihydro-1H-isoindol-5-yl]-[1,3′-biazetidin]-3-yl}methyl)piperazin-1-yl]pyrimidin-4-yl}amino)-1-ethyl-2-oxo-1,2-dihydroquinolin-3-yl]oxy}-N-methylacetamide] | 10 to 50 nM | < 50% | – | –
CCn1c(=O)c(OCC(=O)NC)cc2cc(Nc3nc(N4CCC(OC5CC6(C5)CN(c5ccc7c(c5)C(=O)N(C5CCC(=O)NC5=O)C7=O)C6)CC4)ncc3Cl)ccc21 (stereo not shown) [compound 303, 2-{[6-({5-chloro-2-[4-({2-[2-(2,6-dioxopiperidin-3-yl)-1,3-dioxo-2,3-dihydro-1H-isoindol-5-yl]-2-azaspiro[3.3]heptan-6-yl}oxy)piperidin-1-yl]pyrimidin-4-yl}amino)-1-ethyl-2-oxo-1,2-dihydroquinolin-3-yl]oxy}-N-methylacetamide] | < 10 nM | 50 to 70% | – | –
CCn1c(=O)c(OCC(=O)NC)cc2cc(Nc3nc(N4CCN(C(C)(C)C5CCN(c6ccc7c(c6)C(=O)N(C6CCC(=O)NC6=O)C7=O)CC5)CC4)ncc3Cl)ccc21 (stereo not shown) [compound 304, 2-{[6-({5-chloro-2-[4-(2-{1-[2-(2,6-dioxopiperidin-3-yl)-1,3-dioxo-2,3-dihydro-1H-isoindol-5-yl]piperidin-4-yl}propan-2-yl)piperazin-1-yl]pyrimidin-4-yl}amino)-1-ethyl-2-oxo-1,2-dihydroquinolin-3-yl]oxy}-N-methylacetamide] | < 10 nM | ≥ 70% | – | –
CNC(=O)COc1cc2cc(Nc3nc(N4CCC(CN5CC6(C5)CN(c5ccc7c(c5)C(=O)N(C5CCC(=O)NC5=O)C7=O)C6)CC4)ncc3Cl)ccc2n(C(C)C)c1=O (stereo not shown) [compound 306, 2-{[6-({5-chloro-2-[4-({6-[2-(2,6-dioxopiperidin-3-yl)-1,3-dioxo-2,3-dihydro-1H-isoindol-5-yl]-2,6-diazaspiro[3.3]heptan-2-yl}methyl)piperidin-1-yl]pyrimidin-4-yl}amino)-2-oxo-1-(propan-2-yl)-1,2-dihydroquinolin-3-yl]oxy}-N-methylacetamide] | < 10 nM | ≥ 70% | – | –
CNC(=O)COc1cc2cc(Nc3nc(N4CCN(C(C)(C)C5CCN(c6cccc7c6C(=O)N(C6CCC(=O)NC6=O)C7=O)CC5)CC4)ncc3Cl)ccc2n(C(C)C)c1=O (stereo not shown) [compound 307, 2-{[6-({5-chloro-2-[4-(2-{1-[2-(2,6-dioxopiperidin-3-yl)-1,3-dioxo-2,3-dihydro-1H-isoindol-4-yl]piperidin-4-yl}propan-2-yl)piperazin-1-yl]pyrimidin-4-yl}amino)-2-oxo-1-(propan-2-yl)-1,2-dihydroquinolin-3-yl]oxy}-N-methylacetamide] | < 10 nM | 50 to 70% | – | –
CNC(=O)COc1cc2cc(Nc3cc(N4CCN(C(C)(C)C5CCN(c6ccc7c(c6)C(=O)N(C6CCC(=O)NC6=O)C7=O)CC5)CC4)ncc3Cl)ccc2n(C(C)C)c1=O (stereo not shown) [compound 308, 2-{[6-({5-chloro-2-[4-(2-{1-[2-(2,6-dioxopiperidin-3-yl)-1,3-dioxo-2,3-dihydro-1H-isoindol-5-yl]piperidin-4-yl}propan-2-yl)piperazin-1-yl]pyridin-4-yl}amino)-2-oxo-1-(propan-2-yl)-1,2-dihydroquinolin-3-yl]oxy}-N-methylacetamide] | 10 to 50 nM | < 50% | – | –
CCn1c(=O)c(OCC(=O)NC)cc2cc(Nc3nc(N4CCN(CC5CCN(c6cccc7c6C(=O)N(C6CCC(=O)NC6=O)C7=O)CC5)CC4)ncc3Cl)ccc21 (stereo not shown) [compound 310, 2-{[6-({5-chloro-2-[4-({1-[2-(2,6-dioxopiperidin-3-yl)-1,3-dioxo-2,3-dihydro-1H-isoindol-4-yl]piperidin-4-yl}methyl)piperazin-1-yl]pyrimidin-4-yl}amino)-1-ethyl-2-oxo-1,2-dihydroquinolin-3-yl]oxy}-N-methylacetamide] | < 10 nM | 50 to 70% | – | –
CCn1c(=O)c(OCC(=O)NC)cc2cc(Nc3nc(N4CCN(C(C)(C)C5CCN(c6cccc7c6C(=O)N(C6CCC(=O)NC6=O)C7=O)CC5)CC4)ncc3Cl)ccc21 (stereo not shown) [compound 312, 2-{[6-({5-chloro-2-[4-(2-{1-[2-(2,6-dioxopiperidin-3-yl)-1,3-dioxo-2,3-dihydro-1H-isoindol-4-yl]piperidin-4-yl}propan-2-yl)piperazin-1-yl]pyrimidin-4-yl}amino)-1-ethyl-2-oxo-1,2-dihydroquinolin-3-yl]oxy}-N-methylacetamide] | < 10 nM | ≥ 70% | – | –
CCn1c(=O)c(OCC(=O)NC)cc2cc(Nc3nc(N4CCC(CN5CC(C6CN(c7ccc8c(c7)C(=O)N(C7CCC(=O)NC7=O)C8=O)C6)C5)CC4)ncc3Cl)ccc21 (stereo not shown) [compound 316, 2-{[6-({5-chloro-2-[4-({1′-[2-(2,6-dioxopiperidin-3-yl)-1,3-dioxo-2,3-dihydro-1H-isoindol-5-yl]-[3,3′-biazetidin]-1-yl}methyl)piperidin-1-yl]pyrimidin-4-yl}amino)-1-ethyl-2-oxo-1,2-dihydroquinolin-3-yl]oxy}-N-methylacetamide] | – | – | 50 to 70% | < 10 nM
CCCCn1c(=O)c(OCC(=O)NC)cc2cc(Nc3nc(N4CCN(CC5CCN(c6ccc7c(c6)C(=O)N(C6CCC(=O)NC6=O)C7=O)CC5)CC4)ncc3Cl)ccc21 (stereo not shown) [compound 317, 2-{[1-butyl-6-({5-chloro-2-[4-({1-[2-(2,6-dioxopiperidin-3-yl)-1,3-dioxo-2,3-dihydro-1H-isoindol-5-yl]piperidin-4-yl}methyl)piperazin-1-yl]pyrimidin-4-yl}amino)-2-oxo-1,2-dihydroquinolin-3-yl]oxy}-N-methylacetamide] | – | – | 50 to 70% | < 10 nM

Second part, the compound after the results:

IC50 | Dmax (T47D) | Dmax (T47D cells) | IC50 (T47D cells) | SMILES
10 to 50 nM | ≥ 70% | – | – | CNC(=O)COc1cc2cc(Nc3nc(N4CCN(C(C)(C)C5CCN(c6ccc7c(c6)C(=O)N(C6CCC(=O)NC6=O)C7=O)CC5)CC4)ncc3Cl)ccc2n(C(C)C)c1=O (stereo not shown) [compound 299, 2-{[6-({5-chloro-2-[4-(2-{1-[2-(2,6-dioxopiperidin-3-yl)-1,3-dioxo-2,3-dihydro-1H-isoindol-5-yl]piperidin-4-yl}propan-2-yl)piperazin-1-yl]pyrimidin-4-yl}amino)-2-oxo-1-(propan-2-yl)-1,2-dihydroquinolin-3-yl]oxy}-N-methylacetamide]
< 10 nM | 50 to 70% | – | – | CCn1c(=O)c(OCC(=O)NC)cc2cc(Nc3cc(N4CCN(C(C)(C)C5CCN(c6ccc7c(c6)C(=O)N(C6CCC(=O)NC6=O)C7=O)CC5)CC4)ncc3Cl)ccc21 (stereo not shown) [compound 300, 2-{[6-({5-chloro-2-[4-(2-{1-[2-(2,6-dioxopiperidin-3-yl)-1,3-dioxo-2,3-dihydro-1H-isoindol-5-yl]piperidin-4-yl}propan-2-yl)piperazin-1-yl]pyridin-4-yl}amino)-1-ethyl-2-oxo-1,2-dihydroquinolin-3-yl]oxy}-N-methylacetamide]
10 to 50 nM | 50 to 70% | – | – | CCn1c(=O)c(OCC(=O)NC)cc2cc(Nc3nc(N4CCC(OC5CN(CC6CN(c7ccc8c(c7)C(=O)N(C7CCC(=O)NC7=O)C8=O)C6)C5)CC4)ncc3Cl)ccc21 (stereo not shown) [compound 309, 2-[(6-{[5-chloro-2-(4-{[1-({1-[2-(2,6-dioxopiperidin-3-yl)-1,3-dioxo-2,3-dihydro-1H-isoindol-5-yl]azetidin-3-yl}methyl)azetidin-3-yl]oxy}piperidin-1-yl)pyrimidin-4-yl]amino}-1-ethyl-2-oxo-1,2-dihydroquinolin-3-yl)oxy]-N-methylacetamide]
< 10 nM | ≥ 70% | – | – | CNC(=O)COc1cc2cc(Nc3nc(N4CCN(CC5CCN(c6cccc7c6C(=O)N(C6CCC(=O)NC6=O)C7=O)CC5)CC4)ncc3Cl)ccc2n(C(C)C)c1=O (stereo not shown) [compound 311, 2-{[6-({5-chloro-2-[4-({1-[2-(2,6-dioxopiperidin-3-yl)-1,3-dioxo-2,3-dihydro-1H-isoindol-4-yl]piperidin-4-yl}methyl)piperazin-1-yl]pyrimidin-4-yl}amino)-2-oxo-1-(propan-2-yl)-1,2-dihydroquinolin-3-yl]oxy}-N-methylacetamide]
< 10 nM | 50 to 70% | – | – | CCn1c(=O)c(OCC(=O)NC)cc2cc(Nc3nc(N4CCN(C(C)(C)C5CCN(c6ccc7c(c6)CN(C6CCC(=O)NC6=O)C7=O)CC5)CC4)ncc3Cl)ccc21 (stereo not shown) [compound 313, 2-{[6-({5-chloro-2-[4-(2-{1-[2-(2,6-dioxopiperidin-3-yl)-1-oxo-2,3-dihydro-1H-isoindol-5-yl]piperidin-4-yl}propan-2-yl)piperazin-1-yl]pyrimidin-4-yl}amino)-1-ethyl-2-oxo-1,2-dihydroquinolin-3-yl]oxy}-N-methylacetamide]
– | – | 50 to 70% | 10 to 50 nM | CCCn1c(=O)c(OCC(=O)NC)cc2cc(Nc3nc(N4CCN(CC5CCN(c6ccc7c(c6)C(=O)N(C6CCC(=O)NC6=O)C7=O)CC5)CC4)ncc3Cl)ccc21 (stereo not shown) [compound 314, 2-{[6-({5-chloro-2-[4-({1-[2-(2,6-dioxopiperidin-3-yl)-1,3-dioxo-2,3-dihydro-1H-isoindol-5-yl]piperidin-4-yl}methyl)piperazin-1-yl]pyrimidin-4-yl}amino)-2-oxo-1-propyl-1,2-dihydroquinolin-3-yl]oxy}-N-methylacetamide]
– | – | 50 to 70% | 10 to 50 nM | CNC(=O)COc1cc2cc(Nc3nc(N4CCN(C(C)(C)C5CCN(c6ccc(C(=O)NC7CCC(=O)NC7=O)c(OC)c6)CC5)CC4)ncc3Cl)ccc2n(C)c1=O (stereo not shown) [compound 315, 4-[4-(2-{4-[5-chloro-4-({1-methyl-3-[(methylcarbamoyl)methoxy]-2-oxo-1,2-dihydroquinolin-6-yl}amino)pyrimidin-2-yl]piperazin-1-yl}propan-2-yl)piperidin-1-yl]-N-(2,6-dioxopiperidin-3-yl)-2-methoxybenzamide]
